Laboratory results: the NIST ThermoML archive (doi:10.1021/acs.jced.6b00673)
Where “and” joins values, the source holds several entries; their conditions need not be identical. Equal entries are not always repeated. ± gives the expanded uncertainty stated by the source.

Details: Liquid, Closed cell (Static) method

F/C=C/C(F)(F)F [trans-1,3,3,3-tetrafluoropropene]
Details | vapor or sublimation pressure
235.01 K | 40.19 ± 1.2 kPa
235.17 K | 40.58 ± 1.2 kPa
239.05 K | 49.6 ± 1.2 kPa
239.07 K | 49.6 ± 1.2 kPa and 49.61 ± 1.2 kPa
242.03 K | 57.54 ± 1.2 kPa
242.04 K | 57.54 ± 1.2 kPa
245.15 K | 66.85 ± 1.2 kPa
245.16 K | 66.94 ± 1.2 kPa and 66.9 ± 1.2 kPa
247.99 K | 76.45 ± 1.2 kPa
248.02 K | 76.52 ± 1.2 kPa
249.38 K | 81.49 ± 1.2 kPa
250.68 K | 86.48 ± 1.2 kPa
250.72 K | 86.57 ± 1.2 kPa
252.24 K | 92.69 ± 1.2 kPa and 92.75 ± 1.2 kPa
252.58 K | 94.2 ± 1.2 kPa
256.25 K | 110.47 ± 1.2 kPa
258.72 K | 122.66 ± 1.2 kPa
258.74 K | 122.75 ± 1.2 kPa
262.01 K | 140.52 ± 1.2 kPa
264.78 K | 157.04 ± 1.2 kPa
268.27 K | 179.98 ± 1.2 kPa
271.72 K | 205.14 ± 1.2 kPa
274.51 K | 227.45 ± 1.2 kPa
277.43 K | 252.66 ± 1.2 kPa
280.73 K | 283.77 ± 1.3 kPa
284.07 K | 318.06 ± 1.3 kPa
287.25 K | 353.65 ± 1.3 kPa
290.51 K | 393.03 ± 1.3 kPa
293.33 K | 429.86 ± 1.4 kPa
296.67 K | 476.7 ± 1.4 kPa
299.73 K | 523.05 ± 1.4 kPa
302.71 K | 571.25 ± 1.4 kPa
303.98 K | 592.72 ± 1.5 kPa
306.42 K | 635.82 ± 1.5 kPa and 635.84 ± 1.5 kPa
308.5 K | 674.57 ± 1.5 kPa
311.91 K | 741.32 ± 1.6 kPa and 741.51 ± 1.6 kPa
314.3 K | 791.29 ± 1.6 kPa
314.31 K | 791.42 ± 1.6 kPa
316.04 K | 829.03 ± 1.7 kPa and 829.14 ± 1.7 kPa
318.53 K | 885.61 ± 1.7 kPa
319.38 K | 905.41 ± 1.8 kPa and 905.49 ± 1.8 kPa
320.96 K | 943.34 ± 1.8 kPa
323.48 K | 1006.1 ± 1.9 kPa
325.23 K | 1051.7 ± 1.9 kPa
327.75 K | 1119.9 ± 2 kPa
329.78 K | 1177.5 ± 2.1 kPa
332.09 K | 1245.2 ± 2.1 kPa
334.3 K | 1312.8 ± 2.2 kPa
336.51 K | 1383.2 ± 2.3 kPa
338.43 K | 1446.6 ± 2.4 kPa
340.44 K | 1515 ± 2.5 kPa
342.65 K | 1593.5 ± 2.6 kPa
344.94 K | 1678 ± 2.7 kPa
347.25 K | 1766.4 ± 2.8 kPa
349.48 K | 1855 ± 2.9 kPa
351.21 K | 1926.4 ± 3 kPa
353.31 K | 2015.3 ± 3.1 kPa
355.52 K | 2112.5 ± 3.3 kPa
358.52 K | 2250 ± 3.5 kPa
360.61 K | 2349.9 ± 3.7 kPa
362.53 K | 2444.8 ± 3.8 kPa
364.71 K | 2556.2 ± 4 kPa
366.86 K | 2669.6 ± 4.2 kPa
367.85 K | 2724.3 ± 4.2 kPa
368.95 K | 2784.2 ± 4.3 kPa
369.85 K | 2835.5 ± 4.4 kPa
371.01 K | 2900.6 ± 4.5 kPa
371.91 K | 2953.8 ± 4.6 kPa
372.81 K | 3005.5 ± 4.7 kPa
374.07 K | 3082.4 ± 4.8 kPa
374.9 K | 3131.7 ± 4.9 kPa
376.04 K | 3203.1 ± 5 kPa
377.04 K | 3265.4 ± 5.1 kPa
377.94 K | 3323.5 ± 5.2 kPa
378.57 K | 3364.9 ± 5.2 kPa
379.16 K | 3402.3 ± 5.3 kPa
379.51 K | 3425.9 ± 5.3 kPa
379.87 K | 3450.3 ± 5.4 kPa
380.02 K | 3459.7 ± 5.4 kPa
380.51 K | 3493.5 ± 5.4 kPa
